Assay results from paper PMC9622310 (Biomolecules & Therapeutics, 2022).
“And” between values parts separate entries of the source, which are not always exact repeats. Equal entries are not always repeated. Where two headings read alike, the source gives them in different places.

Legend:
[1] = type: in vivo, rat; settings: for Ae0-24 h: unchanged in urine for 24 h; for clearance: CL; for CL renal: CLR; for Vd: Vss
[2] = Rat plasma protein binding of tofacitinib by equilibrium dialysis; type: in vitro ADME; settings: pH 7.4
[3] = Tissue distribution of tofacitinib 30 min after intravenous administration; type: in vivo, rat; settings: 30 min after intravenous 10 mg/kg
[4] = oral 20 mg/kg; for GI24 h: remaining in gastrointestinal tract at 24 h, 20 mg/kg; for Ae0-24 h: unchanged in urine for 24 h
[5] = hepatic microsomes
[6] = intestinal microsomes
[7] = oxidation and N-demethylation; ref Dowty et al., 2014; cited from earlier work
[8] = oral 20 mg/kg, male Sprague-Dawley rats; ref Lee and Kim, 2019; cited from earlier work
4% human serum albumin = settings: 1 to 100 μg/mL; ref Kim et al., 2020; cited from earlier work
P-gp = settings: ref Hussar, 2014; cited from earlier work
in vivo = settings: rat, plasma, po, 20 mg/kg; for CL renal: CLR
in vitro = settings: rat, intestinal microsomes, pH 7.4, CLint
[9] = ref Bergan et al., 1981; cited from earlier work
rats = experiment: Induction of ulcerative colitis by 5% DSS in drinking water; type: in vivo, rat
CYP3A1/2 = experiment: Immunoblot analysis of CYP3A1/2 in hepatic and intestinal microsomes of DSS rats; design: species or system rat
CYP2C11 = experiment: Immunoblot analysis of CYP2C11 in hepatic and intestinal microsomes of DSS rats; design: species or system rat
[10] = rat, plasma, iv, 10 mg/kg, intravenous 10 mg/kg, CON rats
[11] = rat, plasma, iv, 10 mg/kg, intravenous 10 mg/kg, DSS rats

With C[C@@H]1CCN(C(=O)CC#N)C[C@@H]1N(C)c1ncnc2[nH]ccc12 [tofacitinib, Tofacitinib] the “Decrease of CL in DSS rats compared with CON rats” value ([1]; intravenous 10 mg/kg) was 47.7%, the “Decrease of CLNR in DSS rats compared with CON rats” value ([1]; intravenous 10 mg/kg) was 45.3% and the “Decrease of CLR in DSS rats compared with CON rats” value ([1]; intravenous 10 mg/kg) was 77.6%. For the same molecule, the “Decrease of Vss in DSS rats compared with CON rats” value ([1]; intravenous 10 mg/kg) was 43.2%, the “Increase of AUC in DSS rats compared with CON rats” value ([1]; intravenous 10 mg/kg) was 92.3% and the CLNR ([1]; intravenous 10 mg/kg, CON rats) was 34.0 ± 5.54 mL/min/kg. For the same molecule, the Ae0-24 h ([1]; intravenous 10 mg/kg, CON rats) was 3.97 ± 2.93 % of dose, the CLNR ([1]; intravenous 10 mg/kg, DSS rats) was 18.6 ± 1.65 mL/min/kg and the Ae0-24 h ([1]; intravenous 10 mg/kg, DSS rats) was 2.73 ± 1.89 % of dose. For the same molecule, the “CLR′ (CLR recalculated from free fraction in plasma)” value ([1]; intravenous, CON rats) was 5.07 mL/min/kg, the “Contribution of CLR to CL” value ([1]; intravenous, CON rats) was 8.27% and the “CLR′ (CLR recalculated from free fraction in plasma)” value ([1]; intravenous, DSS rats) was 1.10 mL/min/kg. For the same molecule, the “Contribution of CLR to CL” value ([1]; intravenous, DSS rats) was 3.55%, the GI24 h ([1]; intravenous, both CON and DSS rats) was “less than 0.484 % of the intravenous dose” and the half-life ([1]; rat, plasma, iv, 10 mg/kg) was 31 ± 5.36 min. It also gave an AUC ([1]; rat, plasma, iv, 10 mg/kg, intravenous 10 mg/kg, CON rats (n=7)) of 4520 ng·h/mL, an AUC ([1]; rat, plasma, iv, 10 mg/kg, intravenous 10 mg/kg, DSS rats (n=6)) of 8680 ng·h/mL and a clearance [1, 10] of 37.1 ± 5.68 mL/min/kg. For the same molecule, the clearance [1, 11] was 19.4 ± 2.26 mL/min/kg, the CL renal [1, 10] was 3.07 ± 1.4 mL/min/kg and the CL renal [1, 11] was 0.688 ± 0.149 mL/min/kg. The MRT [1, 10] was 20.3 min, the MRT [1, 11] was 31.9 min and the Vd [1, 10] was 0.767 ± 0.286 L/kg. For the same molecule, the Vd [1, 11] was 0.436 ± 0.164 L/kg, the fraction unbound at 24 h, 10 μg/mL ([2]; fresh plasma from CON and DSS rats) was 0.606 to 0.626 and the fraction unbound at 24 h, 10 μg/mL ([2]; fresh plasma from CON rats) was 0.606. The fraction unbound at 24 h, 10 μg/mL ([2]; fresh plasma from DSS rats) was 0.626, the “Concentrations in stomach, small intestine and mesentery, DSS versus CON rats” value [3] was “significantly higher” and the “Plasma concentration, DSS versus CON group” value [3] was “significantly higher”. The “Distribution in rat tissues” value ([3]; both groups) was “widely distributed”, the “Decrease of CLR in DSS rats compared with CON rats” value [4] was 64.0% and the “Increase of AUC in DSS rats compared with CON rats” value [4] was 85.5%. For the same molecule, the GI24 h ([4]; CON rats) was 0.124 % of dose and 0.124 ± 0.141 % of dose, the Ae0-24 h ([4]; CON rats) was 4.13 ± 2.71 % of dose and the GI24 h ([4]; DSS rats) was 1.10 % of dose and 1.10 ± 0.782 % of dose. For the same molecule, the Ae0-24 h ([4]; DSS rats) was 2.40 ± 1.26 % of dose, the “Decrease of CLint in DSS rats compared with CON rats” value [5] was 75.5% and the “Km, DSS versus CON rats” value [5] was “comparable”. For the same molecule, the “Km, DSS versus CON rats” value [6] was “comparable”, the “Decrease of CLint in DSS rats compared with CON rats” value ([6]; p=0.0679) was 39.1% and the “Fraction metabolized by hepatic CYP3A4 and CYP2C19” value [7] was “approximately 70%”. For the same molecule, the F [8] was 29.1%, the “Concentration dependence of binding to 4% human serum albumin” value (4% human serum albumin) was “independent of tofacitinib concentrations” and the P-gp substrate status (P-gp) was “substrate of P-gp”. For the same molecule, the AUC (in vivo; CON rats (n=6)) was 2650 ng·h/mL, the AUC (in vivo; DSS rats (n=6)) was 4920 ng·h/mL and the CL renal (in vivo; CON rats) was 5.47 ± 4.05 mL/min/kg. The CL renal (in vivo; DSS rats) was 1.97 ± 1.14 mL/min/kg, the Cmax (in vivo; CON rats) was 2360 ± 587 ng/mL and the Cmax (in vivo; DSS rats) was 2460 ± 1050 ng/mL. It also gave a Tmax (in vivo; CON rats) of 19.2 min, a Tmax (in vivo; DSS rats) of 25 min and a microsomal CLint (in vitro; CON rats) of 5.81 µL/min/mg. The microsomal CLint (in vitro; DSS rats) was 3.54 µL/min/mg.
In the case of Cc1ncc([N+](=O)[O-])n1CCO [metronidazole], the “Increase of plasma concentration in patients with ulcerative colitis” value [9] is given as 50%.
In the case of dextran sulfate sodium [DSS], the “Decrease in colon length compared to CON rats” value (rats; 5% DSS (w/v) in drinking water for 10 days) is reported as 49.0%, the Body weight decrease (rats; 5% DSS (w/v) in drinking water for 10 days, DSS rats) is reported as 1.14% and the CLCR (rats; DSS rats) is reported as 2.68 mL/min/kg. The “Decrease of plasma albumin” value (rats; DSS rats versus CON rats) was 15.8%, the “Increase of urea nitrogen” value (rats; DSS rats versus CON rats) was 86.4% and the “Decrease in protein expression of CYP3A1/2” value (CYP3A1/2; intestine of DSS rats) was 99.3%. For the same molecule, the “Decrease in protein expression of CYP3A1/2” value (CYP3A1/2; liver of DSS rats) was 80.1%, the “Decrease in protein expression of CYP2C11” value (CYP2C11; intestine of DSS rats) was 78.5% and the “Decrease in protein expression of CYP2C11” value (CYP2C11; liver of DSS rats) was 43.3%.
